pEC50: −log10 of the molar value.

The target of the first test is T1, Solute carrier family 12 member 5 (Homo sapiens, UniProt Q9H2X9).
T1 sequence (Q9H2X9 whole entry): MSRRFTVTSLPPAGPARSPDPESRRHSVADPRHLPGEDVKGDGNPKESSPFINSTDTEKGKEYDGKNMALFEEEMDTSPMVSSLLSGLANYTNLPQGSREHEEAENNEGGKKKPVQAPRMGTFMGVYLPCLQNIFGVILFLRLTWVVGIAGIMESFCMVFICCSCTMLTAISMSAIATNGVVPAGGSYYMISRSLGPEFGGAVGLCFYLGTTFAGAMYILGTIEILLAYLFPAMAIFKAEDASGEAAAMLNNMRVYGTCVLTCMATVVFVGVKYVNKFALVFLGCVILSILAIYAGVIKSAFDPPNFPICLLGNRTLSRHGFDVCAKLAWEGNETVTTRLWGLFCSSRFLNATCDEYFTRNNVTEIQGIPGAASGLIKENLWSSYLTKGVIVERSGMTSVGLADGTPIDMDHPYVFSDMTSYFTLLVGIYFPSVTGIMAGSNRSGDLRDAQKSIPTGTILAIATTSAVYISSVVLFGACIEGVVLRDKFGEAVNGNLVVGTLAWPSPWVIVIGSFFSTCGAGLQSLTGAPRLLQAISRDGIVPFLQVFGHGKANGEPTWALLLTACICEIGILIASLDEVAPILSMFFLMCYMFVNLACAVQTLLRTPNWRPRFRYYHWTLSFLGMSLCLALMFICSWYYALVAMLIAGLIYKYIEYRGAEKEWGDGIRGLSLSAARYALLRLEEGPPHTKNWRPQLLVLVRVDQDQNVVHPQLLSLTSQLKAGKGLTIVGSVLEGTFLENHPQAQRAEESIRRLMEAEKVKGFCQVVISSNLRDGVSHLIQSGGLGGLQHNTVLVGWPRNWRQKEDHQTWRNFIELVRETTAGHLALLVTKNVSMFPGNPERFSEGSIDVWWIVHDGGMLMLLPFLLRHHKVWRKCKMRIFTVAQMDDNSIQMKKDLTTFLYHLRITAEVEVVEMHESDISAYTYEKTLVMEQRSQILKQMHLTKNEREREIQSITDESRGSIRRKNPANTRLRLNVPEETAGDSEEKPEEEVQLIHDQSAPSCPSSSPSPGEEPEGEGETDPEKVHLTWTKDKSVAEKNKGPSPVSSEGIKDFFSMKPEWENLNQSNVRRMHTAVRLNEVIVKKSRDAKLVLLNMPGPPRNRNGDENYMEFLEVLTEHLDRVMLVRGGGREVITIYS
The test is described as follows: KCC2 modulator potency by thallium flux, dose response, cell-based, HEK293 KCC2, FluoZin-2 fluorescence (AID 1736).
Conditions: not given
The pEC50 is −log10 of the EC50, conventionally taken in molar units. `CCOC(=O)c1c(C)[nH]c(N=Nc2ccccc2)c1C` [(5Z)-2,4-dimethyl-5-(phenylhydrazinylidene)-3-pyrrolecarboxylic acid ethyl ester] gave a pEC50 of 5.18.

On to `CN1C(=O)/C(=C/c2ccccc2OCc2ccccc2)NC1=S` [(5Z)-3-methyl-5-[(2-phenylmethoxyphenyl)methylidene]-2-sulfanylidene-4-imidazolidinone], for which the pEC50 was 5.12.

Compound `Oc1ccccc1CN=Nc1nc2ccccc2o1` [(6E)-6-[(1,3-benzoxazol-2-ylhydrazo)methylidene]-1-cyclohexa-2,4-dienone] had a pEC50 of 2.52.

Turning to `CCCCCN1C/C=C\C(c2ccc(OC)cc2)N(Cc2ccc(F)cc2)C(=O)C1` (configuration not stated) [(6Z)-1-amyl-4-(4-fluorobenzyl)-5-(4-methoxyphenyl)-5,8-dihydro-2H-1,4-diazocin-3-one], the pEC50 was 5.10.

As to `O=C(/C=C/c1ccco1)N1CCC(Cc2ccccc2)CC1` [(E)-1-(4-benzylpiperidin-1-yl)-3-(furan-2-yl)prop-2-en-1-one], the pEC50 is 5.53.

`CC(C)CCNC(=O)COC(=O)/C=C/c1ccc2ccccc2n1` [(E)-3-(2-quinolinyl)-2-propenoic acid [2-(3-methylbutylamino)-2-oxoethyl] ester] gave a pEC50 of 5.56.

`COc1ccc(-c2nnc(S/C(=C/c3ccc(Cl)cc3)C(=O)O)o2)cc1` [(E)-3-(4-chlorophenyl)-2-[[5-(4-methoxyphenyl)-1,3,4-oxadiazol-2-yl]sulfanyl]prop-2-enoic acid] had a pEC50 of 6.31.

In turn, `O=C(O)/C=C/c1cn(Cc2ccccc2Cl)nc1-c1ccccc1` [(E)-3-[1-(2-chlorobenzyl)-3-phenyl-pyrazol-4-yl]acrylic acid] gave a pEC50 of 5.69.

Regarding `O=C(O)CC/C(=C\c1ccc(N2CCCC2)c([N+](=O)[O-])c1)c1nc2ccccc2s1` [(E)-4-(1,3-benzothiazol-2-yl)-5-(3-nitro-4-pyrrolidin-1-yl-phenyl)pent-4-enoic acid], the pEC50 is 4.53.

Regarding `O=C(O)CC/C(=C\c1ccc(N2CCOCC2)c([N+](=O)[O-])c1)c1nc2ccccc2s1` [(E)-4-(1,3-benzothiazol-2-yl)-5-(4-morpholin-4-yl-3-nitro-phenyl)pent-4-enoic acid], the pEC50 was 1.09.

In the case of `COc1ccccc1N1CCN(C(=S)NC(=O)/C=C/c2ccccc2)CC1` [(E)-N-[4-(2-Methoxy-phenyl)-piperazine-1-carbothioyl]-3-phenyl-acrylamide], the pEC50 was 3.96.

The compound `O=C(CNC(=O)/C(=C\c1ccc(Br)cc1)NC(=O)c1ccccc1)OCc1ccccc1` [(phenylmethyl) 2-[[(E)-2-benzamido-3-(4-bromophenyl)prop-2-enoyl]amino]ethanoate] had a pEC50 of 5.92.

For the compound `O=C(CNC(=O)/C(=C/c1ccccc1)NC(=O)c1ccc(Br)cc1)OCc1ccccc1` [(phenylmethyl) 2-[[(Z)-2-[(4-bromophenyl)carbonylamino]-3-phenyl-prop-2-enoyl]amino]ethanoate], the pEC50 was 6.17.

As to `CCCCNc1cc(C(=O)O)cc(S(N)(=O)=O)c1Oc1ccccc1` [Fordiuran], the pEC50 was 8.97.

The compound `COc1ccccc1-n1cnc2cc(NS(=O)(=O)c3ccccc3)ccc21` [MLS000032522] showed a pEC50 of 4.00.

`Cc1ccc2c(c1)nnn2C1CCN(S(=O)(=O)c2cccc(S(=O)(=O)N(C)C)c2)CC1` [MLS000033642] had a pEC50 of 5.39.

`O=C(CSc1ncccc1-c1nc2ccccc2[nH]1)N1CCN(c2ccccc2F)CC1` [MLS000033700] had a pEC50 of 5.02.

As for `O=C(OC1CCc2ccccc2C1=O)c1ccccc1O` (configuration not stated) [MLS000051417], the pEC50 is 6.28.

On to `N#Cc1ccccc1NC(=O)CSc1nccn1CCc1ccccc1` [MLS000051858], for which the pEC50 was 4.90.

The compound `Cc1nonc1NC(=O)CSc1ccc(-c2ccccc2)nn1` [MLS000074514] gave a pEC50 of 5.95.

Take `O=C(NCc1cccs1)c1nc2c(nnn2Cc2ccc(F)cc2)c(=O)[nH]1` [MLS000074753]: the pEC50 is 5.00.

Compound `O=S(=O)(NCCc1ccccc1F)c1cccc(S(=O)(=O)N2CCOCC2)c1` [MLS000076090] showed a pEC50 of 2.39.

`O=C(NCCc1csc(-c2ccccc2)n1)c1cccs1` [MLS000102716] gave a pEC50 of 5.13.

For `O=C(Nc1ccc2oc(-c3ccccc3)nc2c1)c1ccncc1` [MLS000109492], the pEC50 was 5.49.

`CS(=O)(=O)N(CC(=O)N1CCN(c2ccccc2)CC1)c1cccc(Br)c1` [MLS000110474] gave a pEC50 of 5.61.

In turn, `CCC(Sc1nc(C)cc(=O)[nH]1)C(=O)Nc1sc2c(c1C#N)CCCC2` (configuration not stated) [MLS000112919] gave a pEC50 of 4.59.

`Cn1c(C(=O)NCCCN2CCN(c3ccccc3F)CC2)cc2c(=O)n(C)c3ccccc3c21` [MLS000118127] had a pEC50 of 5.15.

`Cn1c(C(=O)NCCN2CCN(c3ccccc3F)CC2)cc2c(=O)n(C)c3ccccc3c21` [MLS000118132] gave a pEC50 of 5.57.

Consider `Cc1nn(C)c(C)c1C=C1SC(S)=NC1=O` [MLS000324943], for which the pEC50 was 5.82.

In the case of `O=C(Cc1csc(-c2ccccc2)n1)NCc1ccc(F)cc1` [MLS000336311], the pEC50 is 4.71.

For `CCN(CC)S(=O)(=O)c1ccc(NC(=O)CSc2ncnc3ccccc23)cc1` [MLS000393282], the pEC50 is 5.29.

For `CNc1ccc(/C=C(\CCC(=O)O)c2nc3ccccc3s2)cc1[N+](=O)[O-]` [MLS000394200], the pEC50 was 5.13.

As to `CC1Cc2ccccc2N1C(=O)CN(C)S(=O)(=O)c1cccc2cccnc12` (configuration not stated) [MLS000523063], the pEC50 is 4.71.

As to `CS(=O)(=O)N(CC(=O)N1CCN(c2ccc(F)cc2)CC1)c1ccc(F)c(Cl)c1` [MLS000531433], the pEC50 is 5.12.

Consider `Cc1ccc(C(=O)Nc2nc(=O)n(C(=O)c3ccccc3Cl)s2)cc1` [MLS000540480], for which the pEC50 is 5.41.

The compound `O=C(NNc1nc(-c2ccccc2)cs1)c1ccccc1` [MLS000547345] showed a pEC50 of 7.53.

For `O=[N+]([O-])c1ccccc1C=C[CH+][N-]n1c(-c2ccc(Cl)cc2)n[nH]c1=S` [MLS000555506], the pEC50 was 4.85.

In the case of `O=C(CC(Cc1ccccc1)c1ccco1)NC1CCCCC1` (configuration not stated) [MLS000556612], the pEC50 was 5.57.

In turn, `CC(=NNC(=O)c1ccc(Br)cc1)c1ccccc1` [MLS000558629] gave a pEC50 of 5.57.

Take `Cc1nn2c(nc(O)c3ccccc32)c1C=O` [MLS000565386]: the pEC50 was 4.39.

Compound `Cc1nn(-c2ccc(F)cc2)c(C)c1NS(=O)(=O)c1ccc2ccccc2c1` [MLS000565745] showed a pEC50 of 5.70.

`O=C(O)/C=C/c1cn(Cc2ccccc2)nc1-c1ccccc1` [MLS000567315]: the pEC50 is 1.86.

With `CNC(=O)/C(=C\C=C\c1ccccc1)NC(=O)c1ccc([N+](=O)[O-])cc1` [MLS000570424], the pEC50 is 5.49.

For the compound `CCc1ccc(OCCNC(=O)c2ccccc2SCc2ccc(F)cc2)cc1` [MLS000577152], the pEC50 is 6.52.

Compound `CCCC1=NN2C(=N)/C(=C\c3cc(C)n(-c4cc(C)cc(C)c4)c3C)C(=O)N=C2S1` [MLS000588586] had a pEC50 of 5.12.

In turn, `O=C(CSc1ccc(-c2cccs2)nn1)Nc1ccccc1F` [MLS000621184] gave a pEC50 of 5.66.

`COc1cccc(CNC(=O)CSc2ccc(-c3cccs3)nn2)c1` [MLS000621194] showed a pEC50 of 4.47.

Compound `O=C(C=Cc1ccccc1)CC(=O)c1ccccc1O` [MLS000627068] showed a pEC50 of 4.91.

Consider `O=C(NCc1nc(-c2ccccc2)cs1)c1ccccc1` [MLS000661971], for which the pEC50 was 5.12.

Turning to `CN(CC(=O)N1CCN(Cc2ccccc2)CC1)S(=O)(=O)c1cccc2nsnc12` [MLS000674627], the pEC50 was 6.02.

Take `O=C(CN(c1ccc2c(c1)OCCO2)S(=O)(=O)c1ccccc1)N1CCN(Cc2ccccc2)CC1` [MLS000693333]: the pEC50 was 5.61.

In turn, `O=C(c1ccccc1SCc1ccc(F)cc1)N1CCOCC1` [MLS000712999] showed a pEC50 of 5.05.

Staying with this test, now noted: inactive by the depositor's call.
`Cc1nnc(NC(=O)c2ccc3ccccc3c2)o1` [MLS000056450] showed a pEC50 of 4.07.

Consider `O=C(Cn1nnc(-c2ccccc2-n2cnnn2)n1)NCc1ccccc1` [MLS000073516], for which the pEC50 is 4.62.

`CN(CC(=O)N1CC(=O)N(CCc2ccccc2)C(=O)C1)S(=O)(=O)c1cccc2nsnc12` [MLS000095099] had a pEC50 of 2.64.

`CC(=O)Nc1ccc(S(=O)(=O)N2CCN(C(C)CCc3ccccc3)CC2)cc1` (configuration not stated) [MLS000110551] gave a pEC50 of 4.17.

`N#C/C(=C\c1ccc(-c2cccc([N+](=O)[O-])c2)o1)C(=O)Nc1nc(-c2cccs2)cs1` [MLS000402444] had a pEC50 of 5.04.

Values taken from BindingDB's records for doi:10.7270/Q2Q52N1X (Vanderbilt Screening Center for GPCRs, Ion Channels and …, 2009).
